Measured values published in ChEMBL document CHEMBL1201862, “PubChem BioAssay data set” (2004).
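Test compounds were applied to cells in 96-well plates for 48 hours at 5 doses. GI50 marks 50% less growth.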 Activity calls are given as the source filed them. Rule as the data show it: active = GI50 up to about 1.1 µM and inactive = higher. Square brackets hold non-standard residues; d marks the D form. Peptide text beside a SMILES is read from it. * marks the point of attachment. ξ: configuration not given here. Propanoyl(3-(4-MeO-Ph)) = COc1ccc(CCC(=O)*)cc1; Thr(3ξ) = CC(O)[C@H](N)C(=O)O; dNMeL = CN[C@H](CC(C)C)C(=O)O; ξLac = CC(O)C(=O)O

How the values were obtained:
Experiment in all cases: NCI-60 cell line screen, 48 h
DU-145 = system: DU-145
HCT-116 = system: HCT-116
HL-60 = system: HL-60
K562 = system: K562
Malme-3M = system: Malme-3M
NCI-H226 = system: NCI-H226
NCI-H460 = system: NCI-H460
NCI-H522 = system: NCI-H522
OVCAR-5 = system: OVCAR-5
PC-3 = system: PC-3
SF-295 = system: SF-295
SF-539 = system: SF-539
SK-MEL-2 = system: SK-MEL-2
SN12C = system: SN12C
SNB-19 = system: SNB-19
SW-620 = system: SW-620
U-251 = system: U-251
UACC-257 = system: UACC-257
UO-31 = system: UO-31
UACC-62 = system: UACC-62

Measured: GI50

CCn1c(=O)c2nc(SC)sc2n(-c2ccc(C)cc2)c1=O
inactive: DU-145 > 100 µM | HCT-116 > 100 µM | HL-60 > 100 µM | K562 > 100 µM | Malme-3M > 100 µM | NCI-H226 > 100 µM | NCI-H460 > 100 µM | NCI-H522 > 100 µM | OVCAR-5 > 100 µM | PC-3 > 100 µM | SF-295 > 100 µM | SF-539 > 100 µM | SK-MEL-2 66.4 µM | SN12C > 100 µM | SNB-19 > 100 µM | SW-620 > 100 µM | U-251 > 100 µM | UACC-257 > 100 µM | UO-31 32.1 µM

CCCCCCCCCC[C@H](O)[C@H](O)CC[C@@H](O)[C@H]1CC[C@@H]([C@H]2CC[C@H](CCCCCCC[C@@H](O)CC3=C[C@H](C)OC3=O)O2)O1
inactive: DU-145 4.65 µM | HCT-116 2.64 µM | HL-60 1.9 µM | K562 1.7 µM | Malme-3M 15.3 µM | NCI-H226 1.47 µM | NCI-H460 1.82 µM | NCI-H522 15.1 µM | OVCAR-5 6.28 µM | PC-3 2.23 µM | SF-295 1.22 µM | SF-539 4.48 µM | SK-MEL-2 1.72 µM | SN12C 4.06 µM | SNB-19 1.84 µM | SW-620 2.56 µM | U-251 41.5 µM | UACC-257 1.55 µM | UACC-62 1.67 µM | UO-31 1.22 µM

CC(=O)Nc1nc(O)c2nc(C=O)cnc2n1
inactive: DU-145 > 100 µM | HCT-116 > 100 µM | HL-60 > 100 µM | K562 > 100 µM | Malme-3M > 100 µM | NCI-H226 > 100 µM | NCI-H460 > 100 µM | NCI-H522 > 100 µM | OVCAR-5 > 100 µM | PC-3 > 100 µM | SF-295 > 100 µM | SF-539 > 100 µM | SK-MEL-2 > 100 µM | SN12C > 100 µM | SNB-19 > 100 µM | SW-620 > 100 µM | U-251 > 100 µM | UACC-257 > 100 µM | UACC-62 > 100 µM | UO-31 > 100 µM

COc1nc2c(c(=O)n1C)N[C@@H]1[C@@H](O)[C@H](O)CO[C@@H]1N2
inactive: DU-145 > 100 µM | HCT-116 > 100 µM | HL-60 > 100 µM | K562 > 100 µM | Malme-3M 39.4 µM | NCI-H226 > 100 µM | NCI-H460 > 100 µM | NCI-H522 38.2 µM | OVCAR-5 > 100 µM | PC-3 > 100 µM | SF-295 > 100 µM | SF-539 > 100 µM | SK-MEL-2 > 100 µM | SN12C > 100 µM | SNB-19 > 100 µM | SW-620 > 100 µM | U-251 > 100 µM | UACC-257 > 100 µM | UACC-62 > 100 µM | UO-31 > 100 µM

Cc1cc(-c2nc3ccccc3s2)ccc1N
inactive: DU-145 46.6 µM | HCT-116 46.7 µM | HL-60 15.7 µM | K562 38.8 µM | Malme-3M 64.3 µM | NCI-H226 8.67 µM | NCI-H460 27.2 µM | NCI-H522 18.5 µM | OVCAR-5 19.5 µM | PC-3 26 µM | SF-295 43 µM | SF-539 > 71.1 µM | SK-MEL-2 56.4 µM | SN12C 32.9 µM | SNB-19 > 70.1 µM | SW-620 > 72.4 µM | U-251 45 µM | UACC-257 81.5 µM | UACC-62 46.1 µM | UO-31 6.92 µM

CCc1cc2c(c3c1CCCC3=O)CC1(Cc3ccc(C(=O)OC)cc3C1)C2 (configuration not stated)
inactive: DU-145 > 100 µM | HCT-116 37.9 µM | HL-60 22.5 µM | K562 22 µM | Malme-3M 49.2 µM | NCI-H226 > 100 µM | NCI-H460 > 100 µM | NCI-H522 51.1 µM | OVCAR-5 > 100 µM | PC-3 14.4 µM | SF-295 85.7 µM | SF-539 > 100 µM | SK-MEL-2 > 100 µM | SN12C > 100 µM | SNB-19 > 100 µM | SW-620 > 100 µM | U-251 82.8 µM | UACC-257 32.1 µM | UO-31 48.3 µM

COc1cc(Br)c(OC)c2c(OC)cc(C)cc12
inactive: DU-145 > 100 µM | HCT-116 > 100 µM | HL-60 14.7 µM | K562 67 µM | Malme-3M > 100 µM | NCI-H226 > 100 µM | NCI-H460 > 100 µM | NCI-H522 > 100 µM | OVCAR-5 > 100 µM | PC-3 44.6 µM | SF-295 > 100 µM | SF-539 > 100 µM | SK-MEL-2 > 100 µM | SN12C > 100 µM | SNB-19 > 100 µM | SW-620 > 100 µM | U-251 > 100 µM | UACC-257 > 100 µM | UACC-62 > 100 µM | UO-31 > 100 µM

COC(=O)[C@@H](NC(=O)[C@@H](CC(C)C)N(C)C(=O)[C@@H]1CCCN1C(=O)C(C)O)C(C)OC(=O)CCc1ccc(OC)cc1 (some centres not stated) (H-[ξLac]P[dNMeL][Thr(3ξ)](Propanoyl(3-(4-MeO-Ph)))-OMe)
inactive: DU-145 > 100 µM | HCT-116 > 100 µM | HL-60 > 100 µM | K562 > 100 µM | Malme-3M > 100 µM | NCI-H226 > 100 µM | NCI-H460 > 100 µM | NCI-H522 > 100 µM | OVCAR-5 > 100 µM | PC-3 > 100 µM | SF-295 > 100 µM | SF-539 > 100 µM | SK-MEL-2 > 100 µM | SN12C > 100 µM | SNB-19 > 100 µM | SW-620 > 100 µM | U-251 > 100 µM | UACC-257 > 100 µM | UACC-62 > 100 µM | UO-31 > 100 µM

CCCC(=O)Nc1ncnc2c1ncn2C1OC2COP(=O)(O)OC2C1OC(=O)CCC (configuration not stated)
inactive: DU-145 > 100 µM | HCT-116 > 100 µM | HL-60 180 µM | K562 > 100 µM | Malme-3M > 100 µM | NCI-H226 > 100 µM | NCI-H460 > 100 µM | NCI-H522 > 100 µM | OVCAR-5 > 100 µM | PC-3 > 100 µM | SF-295 > 100 µM | SF-539 382 µM | SK-MEL-2 > 100 µM | SN12C > 100 µM | SNB-19 > 100 µM | SW-620 > 100 µM | U-251 > 100 µM | UACC-257 > 100 µM | UACC-62 > 100 µM | UO-31 312 µM

Nc1nc(Cl)cc(NCC2(O)CCC2)n1
inactive: DU-145 > 100 µM | HCT-116 > 100 µM | HL-60 > 100 µM | K562 > 100 µM | Malme-3M > 100 µM | NCI-H226 > 100 µM | NCI-H460 > 100 µM | NCI-H522 > 100 µM | OVCAR-5 > 100 µM | PC-3 > 100 µM | SF-295 > 100 µM | SF-539 > 100 µM | SK-MEL-2 > 100 µM | SN12C > 100 µM | SW-620 > 100 µM | U-251 > 100 µM | UACC-257 > 100 µM | UACC-62 > 100 µM | UO-31 56.5 µM
